Reference: US5580870A, “Quinazoline derivatives” (Zeneca Limited, priority 1992, dated 1996)
Like-named read-outs stand apart in the source and are kept apart here.

Assays:
liver hepatocyte growth = test: Test (c): in vivo inhibition of TGFα-stimulated liver hepatocyte growth in male rats (BrdU uptake); design: species or system rat; details: for ED50: Rattus norvegicus, Hepatocyte, read-out: ED50 in Test (c), inhibition of liver hepatocyte proliferation
Procedure: (c) An in vivo assay in a group of male rats which determines the ability of a test compound (usually administered orally as a ball-milled suspension in 0.5% polysorbate) to inhibit the stimulation of liver hepatocyte growth caused by the administration of the growth factor TGFα (400 μg/kg subcutaneously, usually dosed twice, 3 and 7 hours respectively after the administration of the test compound).
Cell-growth in the control and test animals is determined as follows:
On the morning of the day after the dosing of the test compound (or 0.5% polysorbate in the control group), the animals are dosed with bromodeoxyuridine (BrdU; 100 mg/kg intraperitoneally). The animals are killed four hours later and the livers are excised. […] Further tests were carried out using a range of doses of the test compounds to allow the calculation of an approximate ED50 value for the inhibition of liver hepatocyte proliferation as determined by inhibition of the uptake of BrdU.

KB cells = test: Test (b): in vitro inhibition of growth of human naso-pharyngeal cancer cell line KB (EGF, MTT); format: cell-based; details: 72 h, read-out: IC50 in Test (b), inhibition of KB cell growth
Procedure: (b) An in vitro assay which determines the ability of a test compound to inhibit the growth of the human naso-pharyngeal cancer cell line KB.
KB cells were seeded into wells at a density of 1×10^4 -1.5×10^4 cells per well and grown for 24 hours in DMEM supplemented with 5% FCS (charcoal-stripped). Cell growth was determined after incubation for 3 days by the extent of metabolism of MTT tetrazolium dye to furnish a bluish colour. Cell growth was then determined in the presence of EGF (10 ng/ml) or in the presence of EGF (10 ng/ml) and a test compound at a range of concentrations. An IC50 value could then be calculated.

receptor tyrosine kinase = target: T1, receptor tyrosine kinase (Homo sapiens, UniProt P00533); test: Test (a): in vitro receptor tyrosine kinase inhibition (enzyme from A-431 cells, 32P-ATP/peptide phosphorylation, with EGF); format: biochemical
T1 construct: The supernatant, containing solubilised receptor tyrosine kinase, was stored in liquid nitrogen; endogenous in cells; host or cells: A-431 cells (human vulval carcinoma), solubilised membrane fraction
Procedure: A-431 cells were grown to confluence using Dulbecco's modified Eagle's medium (DMEM) containing 5% fetal calf serum (FCS). The obtained cells were homogenised in a hypotonic borate/EDTA buffer at pH 10.1. The homogenate was centrifuged at 400 g for 10 minutes at 0°-4° C. The supernatant was centrifuged at 25,000 g for 30 minutes at 0°-4° C. The pelleted material was suspended in 30 mM Hepes buffer at pH 7.4 containing 5% glycerol, 4 mM benzamidine and 1% Triton X-100, stirred for 1 hour at 0°-4° C., and recentrifuged at 100,000 g for 1 hour at 0°-4° C. The supernatant, containing solubilised receptor tyrosine kinase, was stored in liquid nitrogen.
For test purposes 40 μl of the enzyme solution so obtained was added to a mixture of 400 μl of a mixture of 150 mM Hepes buffer at pH 7.4, 500 μM sodium orthovanadate, 0.1% Triton X-100, 10% glycerol, 200 μl water, 80 μl of 25 mM DTT and 80 μl of a mixture of 12.5 mM manganese chloride, 125 mM magnesium chloride and distilled water. There was thus obtained the test enzyme solution. […]
The test compound/EGF mixture solution (5 μl) was added to the test enzyme solution (10 μl) and the mixture was incubated at 0°-4° C. for 30 minutes. […] Radioactivity present in the filter paper was measured using a liquid scintillation counter (Sequence A). […]
Receptor tyrosine kinase inhibition was calculated as follows: [formula]

[1] = tested on: human mammary carcinoma which expresses epidermal growth factor (EGF) receptor tyrosine kinase; details: athymic nude mice; Toi et al., 1990; cited from earlier work
[2] = tested on: carcinoma which does not express EGF receptor tyrosine kinase; details: Toi et al., 1990; cited from earlier work
[3] = male rats, usually oral, TGFα 400 μg/kg subcutaneously, BrdU uptake

T1 sequence (P00533 25-1210): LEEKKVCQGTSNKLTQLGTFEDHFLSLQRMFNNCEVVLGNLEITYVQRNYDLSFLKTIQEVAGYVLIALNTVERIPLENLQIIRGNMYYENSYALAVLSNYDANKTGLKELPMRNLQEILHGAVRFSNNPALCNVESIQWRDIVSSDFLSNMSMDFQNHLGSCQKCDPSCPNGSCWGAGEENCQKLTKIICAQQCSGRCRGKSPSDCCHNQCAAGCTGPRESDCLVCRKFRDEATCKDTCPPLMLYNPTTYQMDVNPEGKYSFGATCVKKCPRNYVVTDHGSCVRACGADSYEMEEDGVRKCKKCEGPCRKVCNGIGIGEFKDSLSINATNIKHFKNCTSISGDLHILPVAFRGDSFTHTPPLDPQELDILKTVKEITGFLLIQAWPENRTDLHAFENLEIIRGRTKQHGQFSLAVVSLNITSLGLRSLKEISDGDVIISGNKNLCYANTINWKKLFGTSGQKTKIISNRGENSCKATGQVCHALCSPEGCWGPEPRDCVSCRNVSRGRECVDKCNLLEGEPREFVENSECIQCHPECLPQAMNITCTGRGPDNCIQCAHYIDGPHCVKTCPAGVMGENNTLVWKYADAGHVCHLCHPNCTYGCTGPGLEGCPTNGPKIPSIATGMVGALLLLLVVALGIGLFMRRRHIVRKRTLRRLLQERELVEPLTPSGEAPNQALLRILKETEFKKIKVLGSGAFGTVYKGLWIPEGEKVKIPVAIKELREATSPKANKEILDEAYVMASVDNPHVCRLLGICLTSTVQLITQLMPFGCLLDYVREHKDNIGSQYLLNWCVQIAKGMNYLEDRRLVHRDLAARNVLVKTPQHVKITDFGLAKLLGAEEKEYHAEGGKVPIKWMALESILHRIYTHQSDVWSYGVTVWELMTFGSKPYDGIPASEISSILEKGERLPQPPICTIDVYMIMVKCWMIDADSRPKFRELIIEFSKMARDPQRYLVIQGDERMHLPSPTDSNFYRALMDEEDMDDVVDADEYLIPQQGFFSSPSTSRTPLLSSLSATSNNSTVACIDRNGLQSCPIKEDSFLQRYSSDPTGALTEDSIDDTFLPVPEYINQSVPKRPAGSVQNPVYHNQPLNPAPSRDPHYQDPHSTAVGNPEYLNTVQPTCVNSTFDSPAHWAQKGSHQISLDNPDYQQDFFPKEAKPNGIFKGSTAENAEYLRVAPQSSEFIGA
T1 sequence (P01133 971-1023 partner limits assumed): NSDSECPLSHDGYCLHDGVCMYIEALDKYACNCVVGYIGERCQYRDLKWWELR

| IC50 (receptor tyrosine kinase) | IC50 (KB cells; EGF (10 ng/ml), 3 days, MTT) | Compound | ED50 (liver hepatocyte growth; [3]) | also measured |
| --- | --- | --- | --- | --- |
| – | – | COc1cc2ncnc(Nc3ccc4c(c3)CCC4)c2cc1OC [6,7-dimethoxy-4-(5-indanylamino)quinazoline] | – | ED50 (liver hepatocyte growth; po): 1 to 5 mg/kg; IC50 (KB cells): 650 nM |
| – | – | TGFα: the growth factor TGFα [reference compound] | – | stimulation of liver hepatocyte growth (liver hepatocyte growth; control group of rats, TGFα 400 μg/kg subcutaneously, on average): 5 fold |
| 1 nM | 400 nM | COc1cc2ncnc(Nc3ccc4[nH]ccc4c3)c2cc1OC [6,7-dimethoxy-4-(5-indolylamino)quinazoline] | 1 to 5 mg/kg | – |
| – | – | O=CN/C=C/c1cc(O)ccc1O [erbstatin] | – | effect on growth of transplanted human mammary carcinoma expressing EGF receptor tyrosine kinase [1]: specifically attenuates the growth; effect on growth of another carcinoma which does not express EGF receptor tyrosine kinase [2]: without effect |
| 60 nM | 1800 nM | COc1cc2ncnc(Nc3cccc4ncccc34)c2cc1OC [6,7-dimethoxy-4-(5-quinolylamino)quinazoline] | ~2 mg/kg | – |
